For experiment [1], the system named is Klebsiella pneumoniae expressing VIM-1 (IHMA599644). Kind of experiment: Antibiotic potentiation activity: synergistic concentration (MITC95) with imipenem, OD600 growth. Particulars: Klebsiella pneumoniae IHMA599644 (VIM-1), 95% growth inhibition. Type of experiment: cell-based. In a few lines:
(§1)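 Imipenem (4 μg/ml final; 1 μg/ml as an option) was combined with compound against isolates diluted 1:100 from saline suspensions into 1.1× CAMHB. Growth was assessed by absorbance at 22–24 h, 35 °C.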

Experiment [2] deals with Escherichia coli expressing NDM-1 (CLB30016). The experiment is described as above. Type of experiment: cell-based. Particulars: (CLB30016, NDM-1), 95% growth inhibition. In outline:
as §1

In experiment [3] the test system is Serratia marcescens expressing IMP-1 (CL5741). The description is as above. Type of experiment: cell-based. As to conditions: Serratia marcescens CL5741 (IMP-1), 95% growth inhibition. In a few lines:
as §1

Experiment [4] concerns the target VIM-1 (Pseudomonas aeruginosa (strain ATCC 15692 / DSM 22644 / CIP 104116 / JCM 14847 / LMG 12228 / 1C / PRS 101 / PAO1), UniProt A0A0F7KYQ8). As to the kind of experiment: Enzyme activity: determination of IC50, fluorescence assay with CCF2-FA substrate (VIM-1). Type of experiment: biochemical. Particulars: CCF2-FA substrate.
The target in experiment [5] is NDM-1 (Klebsiella pneumoniae, UniProt C7C422). As to the kind of experiment: biochemical. Type of experiment: biochemical.
Chain of NDM-1 (C7C422 whole entry, looked up, species assumed): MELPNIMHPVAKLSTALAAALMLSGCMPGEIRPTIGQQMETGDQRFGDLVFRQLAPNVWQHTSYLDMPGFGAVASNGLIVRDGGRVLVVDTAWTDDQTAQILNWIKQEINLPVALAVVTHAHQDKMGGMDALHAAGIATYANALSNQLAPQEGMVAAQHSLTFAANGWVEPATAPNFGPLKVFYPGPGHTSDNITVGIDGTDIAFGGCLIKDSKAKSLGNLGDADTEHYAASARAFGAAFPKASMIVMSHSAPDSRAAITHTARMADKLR
The target of experiment [6] is IMP-1 (Serratia marcescens, UniProt P52699). Kind of experiment: biochemical. The class given is biochemical.
Chain of IMP-1 (P52699 whole entry, looked up): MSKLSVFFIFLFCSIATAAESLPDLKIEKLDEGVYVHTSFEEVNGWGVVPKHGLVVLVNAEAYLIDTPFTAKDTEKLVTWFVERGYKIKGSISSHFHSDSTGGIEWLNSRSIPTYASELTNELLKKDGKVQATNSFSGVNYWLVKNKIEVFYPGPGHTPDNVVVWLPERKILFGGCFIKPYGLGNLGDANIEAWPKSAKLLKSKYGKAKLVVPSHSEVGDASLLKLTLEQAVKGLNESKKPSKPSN
[7] abbreviates: NDM-1 enzyme, CCF2-FA substrate, read-out: NDM-1 IC50.
The mark [8] stands for this setting: IMP-1 enzyme, CCF2-FA substrate, read-out: IMP-1 IC50.
Setting [9] is: VIM-1 enzyme, read-out: VIM-1 IC50.

Read-outs that look alike come from different tables or passages of the source.

Take `NS(=O)(=O)c1c(C(F)(F)F)ccc([C@H]2CC[C@H](NCC3CCCN3)CC2)c1-c1nnn[nH]1` (stereo partly drawn) [Example 681, 3-{4-[(pyrrolidin-2-ylmethyl)amino]cyclohex-yl}-2-(1H-tetrazol-5-yl)-6-(trifluoromethyl)benzene sulfonamide]: the “Klebsiella pneumoniae MITC95” value in experiment [1] was 6.25 µM. The “Escherichia coli MITC95” value in experiment [2] turned out to be 1.563 µM. Also, the “Serratia marcescens MITC95” value in experiment [3] turned out to be 3.125 µM. Also, the IC50 in experiment [4] (VIM-1 IC50, VIM-1 enzyme) turned out to be 7.1 nM; in experiment [5] (setting [7]) it was 8.72 nM; in experiment [6] (setting [8]) it was 16.1 nM.

For the compound `Nc1ccc(CN[C@H]2CC[C@H](c3ccc(C(F)(F)F)c(S(N)(=O)=O)c3-c3nnn[nH]3)CC2)cn1` [Example 682, 3-(4-{[(6-aminopyridin-3-yl)methyl]amino}cyclohex-yl)-2-(1H-tetrazol-5-yl)-6-(trifluoromethyl)benzene sulfonamide], in experiment [1], the “Klebsiella pneumoniae MITC95” value came out at 12.5 µM. In experiment [2], the “Escherichia coli MITC95” value is 6.25 µM. Moreover, the “Serratia marcescens MITC95” value in experiment [3] was determined as 6.25 µM. Further, the half-inhibitory concentration (IC50) in experiment [4] (setting [9]) was found to be 0.684 nM; in experiment [5], 4.12 nM; in experiment [6], 27.4 nM.

Regarding `CC(N[C@H]1CC[C@H](c2ccc(C(F)(F)F)c(S(N)(=O)=O)c2-c2nnn[nH]2)CC1)C1CCNCC1` (stereo partly drawn) [Example 683, 3-{4-[(1-piperidin-4-ylethyl)amino]cyclohexyl}-2-(1H-tetrazol-5-yl)-6-(trifluoromethyl)benzene sulfonamide], the “Klebsiella pneumoniae MITC95” value in experiment [1] is 50 µM. In addition, the “Escherichia coli MITC95” value in experiment [2] amounted to 3.125 µM. Also, in experiment [3], the “Serratia marcescens MITC95” value was 12.5 µM. The IC50 in experiment [4] (setting [9]) was 28.1 nM; in experiment [5] (setting [7]), 31.5 nM; in experiment [6] (setting [8]) it was 154 nM.

As to `NS(=O)(=O)c1c(C(F)(F)F)ccc([C@H]2CC[C@H](NC3CC[C@@H]4CNCC[C@H]4C3)CC2)c1-c1nnn[nH]1` (stereo partly drawn) [Example 684, 3-{4-[(4aS,8aS)-decahydroisoquinolin-6-ylamino]cyclohexyl}-2-(1H-tetrazol-5-yl)-6-(trifluoromethyl)benzene sulfonamide], the “Klebsiella pneumoniae MITC95” value in experiment [1] amounted to 12.5 µM. Further, the “Escherichia coli MITC95” value in experiment [2] turned out to be 3.125 µM. In experiment [3], the “Serratia marcescens MITC95” value amounted to 6.25 µM. Further, the values for the concentration for half-maximal inhibition (IC50) in experiment [4] (setting [9]), in experiment [5] (setting [7]) and in experiment [6] (setting [8]) were 10.8 nM, 38.6 nM and 75.7 nM, respectively.

On to `NS(=O)(=O)c1c(C(F)(F)F)ccc([C@H]2CC[C@H](NC3CC4(CCNCC4)C3)CC2)c1-c1nnn[nH]1` [Example 685, 3-[4-(7-azaspiro[3.5]non-2-ylamino)cyclohexyl]-2-(1H-tetrazol-5-yl)-6-(trifluoromethyl)benzene sulfonamide], for which, in experiment [1], the “Klebsiella pneumoniae MITC95” value worked out at 25 µM. For the same compound, the “Escherichia coli MITC95” value in experiment [2] was found to be 1.563 µM. Besides, the “Serratia marcescens MITC95” value in experiment [3] is 6.25 µM. Moreover, the IC50 is 4.88 nM in experiment [4] (setting [9]), 30 nM in experiment [5] (setting [7]) and 75.8 nM in experiment [6] (setting [8]).

With `NS(=O)(=O)c1c(C(F)(F)F)ccc([C@H]2CC[C@H](NC3CC4CNCCN4C3)CC2)c1-c1nnn[nH]1` (stereo partly drawn) [Example 686, 3-[4-(octahydropyrrolo[1,2-a]pyrazin-7-ylamino)cyclohexyl]-2-(1H-tetrazol-5-yl)-6-(trifluoromethyl)benzene sulfonamide], the “Klebsiella pneumoniae MITC95” value in experiment [1] stood at 12.5 µM. In addition, in experiment [2], the “Escherichia coli MITC95” value amounted to 1.563 µM. Also, the “Serratia marcescens MITC95” value in experiment [3] worked out at 6.25 µM. Also, the IC50 in experiment [4] (VIM-1 IC50, VIM-1 enzyme) worked out at 15.7 nM; in experiment [5] (setting [7]), 9.53 nM; in experiment [6] (setting [8]), 31.7 nM.

Turning to `NC1CCCC(N[C@H]2CC[C@H](c3ccc(C(F)(F)F)c(S(N)(=O)=O)c3-c3nnn[nH]3)CC2)C1` (stereo partly drawn) [Example 687, 3-{4-[(3-aminocyclohexyl)amino]cyclohexyl}-2-(1H-tetrazol-5-yl)-6-(trifluoromethyl)benzene sulfonamide], in experiment [1], the “Klebsiella pneumoniae MITC95” value is 25 µM. For the same compound, in experiment [2], the “Escherichia coli MITC95” value worked out at 3.125 µM. Also, the “Serratia marcescens MITC95” value in experiment [3] is 6.25 µM. Moreover, the IC50 turned out to be 27.8 nM in experiment [4] (VIM-1 IC50, VIM-1 enzyme); 25.2 nM in experiment [5] (setting [7]); 94.3 nM in experiment [6] (setting [8]).

As to `CC(CCCN)N[C@H]1CC[C@H](c2ccc(C(F)(F)F)c(S(N)(=O)=O)c2-c2nnn[nH]2)CC1` (stereo partly drawn) [Example 688, 3-{4-[(4-amino-1-methylbutyl)amino]cyclo-hexyl)-2-(1H-tetrazol-5-yl)-6-(trifluoromethyl)benzene sulfonamide], the “Klebsiella pneumoniae MITC95” value in experiment [1] was 12.5 µM. Also, the “Escherichia coli MITC95” value in experiment [2] was 1.563 µM. Besides, the “Serratia marcescens MITC95” value in experiment [3] is 6.25 µM. In addition, the half-maximal inhibitory concentration (IC50) is 13.4 nM in experiment [4] (setting [9]), 44.1 nM in experiment [5] (setting [7]) and 158 nM in experiment [6] (setting [8]).

Turning to `NS(=O)(=O)c1c(C(F)(F)F)ccc([C@H]2CC[C@H](NC3CCC4(CCNCC4)CC3)CC2)c1-c1nnn[nH]1` [Example 689, 3-[4-(3-azaspiro[5.5]undec-9-ylamino)cyclohexyl]-2-(1H-tetrazol-5-yl)-6-(trifluoromethyl)benzene sulfonamide], the “Klebsiella pneumoniae MITC95” value in experiment [1] is 12.5 µM. The “Escherichia coli MITC95” value in experiment [2] amounted to 6.25 µM. For the same compound, the “Serratia marcescens MITC95” value in experiment [3] is 6.25 µM. Further, the concentration for half-maximal inhibition (IC50) in experiment [4] (setting [9]) is 6.43 nM; in experiment [5] (setting [7]), 26.8 nM; in experiment [6] (setting [8]), 52.1 nM.

For the compound `NC1CCC(N[C@H]2CC[C@H](c3ccc(C(F)(F)F)c(S(N)(=O)=O)c3-c3nnn[nH]3)CC2)CC1` (stereo partly drawn) [Example 690, 3-{4-[(4-aminocyclohexyl)amino]cyclohexyl}-2-(1H-tetrazol-5-yl)-6-(trifluoromethyl)benzene sulfonamide], the “Klebsiella pneumoniae MITC95” value in experiment [1] is 25 µM. The “Escherichia coli MITC95” value in experiment [2] came out at 1.563 µM. Besides, the “Serratia marcescens MITC95” value in experiment [3] is 3.125 µM. In addition, the concentration for half-maximal inhibition (IC50) in experiment [4] (VIM-1 IC50, VIM-1 enzyme) is 5.26 nM; in experiment [5] (setting [7]), 12.6 nM; in experiment [6] (setting [8]), 75.9 nM.

`NC1CCC(N[C@H]2CC[C@H](c3ccc(C(F)(F)F)c(S(N)(=O)=O)c3-c3nnn[nH]3)CC2)C1` (stereo partly drawn) [Example 691, 3-{4-[(3-aminocyclopentyl)amino]cyclohexyl}-2-(1H-tetrazol-5-yl)-6-(trifluoromethyl)benzene sulfonamide]: in experiment [1], the “Klebsiella pneumoniae MITC95” value was found to be 3.125 µM. Moreover, in experiment [2], the “Escherichia coli MITC95” value stood at 0.7813 µM. Further, the “Serratia marcescens MITC95” value in experiment [3] is 3.125 µM. Moreover, the IC50 in experiment [4] (VIM-1 IC50, VIM-1 enzyme) stood at 6.13 nM; in experiment [5] (setting [7]), 10.6 nM; in experiment [6] (setting [8]) it was 51.8 nM.

As to `NCCC1CCC(N[C@H]2CC[C@H](c3ccc(C(F)(F)F)c(S(N)(=O)=O)c3-c3nnn[nH]3)CC2)CC1` (stereo partly drawn) [Example 693, 3-(4-{[4-(2-aminoethyl)cyclohexyl]a-mino}cyclohexyl)-2-(1H-tetrazol-5-yl)-6-(trifluoromethyl)benzene sulfonamide], the “Klebsiella pneumoniae MITC95” value in experiment [1] came to 12.5 µM. Also, in experiment [2], the “Escherichia coli MITC95” value was 3.125 µM. Further, in experiment [3], the “Serratia marcescens MITC95” value is 6.25 µM. For the same compound, the figures for the 50% inhibitory concentration (IC50) in experiment [4] (setting [9]), in experiment [5] (setting [7]) and in experiment [6] (setting [8]) were 11.6 nM, 36.9 nM and 97.8 nM, respectively.

`NC1CC(N[C@H]2CC[C@H](c3ccc(C(F)(F)F)c(S(N)(=O)=O)c3-c3nnn[nH]3)CC2)C1` (stereo partly drawn) [Example 694, 3-{4-[(3-aminocyclobutyl)amino]cyclohexyl}-2-(1H-tetrazol-5-yl)-6-(trifluoromethyl)benzene sulfonamide]: in experiment [1], the “Klebsiella pneumoniae MITC95” value was found to be 1.563 µM. The “Escherichia coli MITC95” value in experiment [2] worked out at 0.3906 µM. The “Serratia marcescens MITC95” value in experiment [3] worked out at 1.563 µM. The IC50 is 2.46 nM in experiment [4] (VIM-1 IC50, VIM-1 enzyme); 4.84 nM in experiment [5] (setting [7]); 18.6 nM in experiment [6] (setting [8]).

Take `NS(=O)(=O)c1c(C(F)(F)F)ccc([C@H]2CC[C@H](NC3CCCNCC3)CC2)c1-c1nnn[nH]1` (stereo partly drawn) [Example 695, 3-[4-(azepan-4-ylamino)cyclohexyl]-2-(1H-tetrazol-5-yl)-6-(trifluoromethyl)benzene sulfonamide]: the “Klebsiella pneumoniae MITC95” value in experiment [1] was found to be 6.25 µM. In experiment [2], the “Escherichia coli MITC95” value worked out at 0.7813 µM. Besides, the “Serratia marcescens MITC95” value in experiment [3] amounted to 3.125 µM. Further, the IC50 came to 13.2 nM in experiment [4] (setting [9]), 13.6 nM in experiment [5] (setting [7]) and 42.3 nM in experiment [6] (setting [8]).

For the compound `NS(=O)(=O)c1c(C(F)(F)F)ccc([C@H]2CC[C@H](NC3CCNC3)CC2)c1-c1nnn[nH]1` (stereo partly drawn) [Example 696, 3-[4-(pyrrolidin-3-ylamino)cyclohexyl]-2-(1H-tetrazol-5-yl)-6-(trifluoromethyl)benzene sulfonamide], the “Klebsiella pneumoniae MITC95” value in experiment [1] is 3.125 µM. Besides, the “Escherichia coli MITC95” value in experiment [2] stood at 0.3906 µM. Further, the “Serratia marcescens MITC95” value in experiment [3] worked out at 1.563 µM. For the same compound, the IC50 in experiment [4] (setting [9]) came out at 2.38 nM; in experiment [5] (setting [7]), 1.09 nM; in experiment [6] (setting [8]), 5.26 nM.

Consider `NS(=O)(=O)c1c(C(F)(F)F)ccc([C@H]2CC[C@H](NC3CCCNC3)CC2)c1-c1nnn[nH]1` (stereo partly drawn) [Example 697, 3-[4-(piperidin-3-ylamino)cyclohexyl]-2-(1H-tetrazol-5-yl)-6-(trifluoromethyl)benzene sulfonamide], for which the “Klebsiella pneumoniae MITC95” value in experiment [1] is 6.25 µM. For the same compound, in experiment [2], the “Escherichia coli MITC95” value was found to be 0.7813 µM. Besides, the “Serratia marcescens MITC95” value in experiment [3] was 3.125 µM. Besides, the 50% inhibitory concentration (IC50) in experiment [4] (VIM-1 IC50, VIM-1 enzyme) was found to be 6.33 nM; in experiment [5] (setting [7]), 1.61 nM; in experiment [6] (setting [8]), 6.42 nM.

Usually IC50 stands for the midpoint of a concentration-inhibition curve.

The record behind these values is patent US9708336B2, “Metallo-beta-lactamase inhibitors” (priority 2014, dated 2017).
